Earlier results in patent EP4578905A1, “COMPOSITION, PREPARATION METHOD THEREFOR, AND USE THEREOF” (Bloomage Biotechnology Corporation Limited, priority 2022, dated 2024).
Where two headings read alike, the source gives them in different places.

In the case of `NCCCC(=O)O` [γ-aminobutyric acid], the “dissociation constant pK” value (first pK printed) is given as 4.03 and the “dissociation constant pK” value (second pK printed) is given as 10.56.
